Experimental findings from US20200399222A1, “PICOLINAMIDES AS FUNGICIDES” (Dow AgroSciences LLC, priority 2018, published 2020) are described below.

What all share (format): in vivo
The subject of one assay is Zymoseptoria tritici. The assay can be described thus: Leaf blotch of wheat (SEPTTR) disease control on wheat seedlings. The conditions noted are these: for pest or weed control at 100 ppm: High volume application; for pest or weed control at 121.5 g/ha: Low volume application.
For a further assay, the system named is Puccinia triticina. The experiment in a line: Wheat brown rust (PUCCRT) disease control on wheat seedlings. The following applies: for pest or weed control at 100 ppm: High volume application; for pest or weed control at 121.5 g/ha: Low volume application. A digest of the protocol:
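Yuma wheat seedlings (first leaf emerged) sprayed to run-off with compound in acetone plus nine volumes water containing 110 ppm Triton X-100, or track-sprayed as EC formulations with 0.1% Trycol 5941. Rust spores inoculated before or after treatment; overnight dark dew, 22 °C, 100% RH, then greenhouse at 24 °C.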

Another assay deals with Phakopsora pachyrhizi. The experiment in a line: Asian soybean rust (PHAKPA) disease control on soybean seedlings. The conditions noted are these: Phakopsora pachyrhizi, High volume application at 25 ppm. A digest of the protocol: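 Compounds in acetone diluted with nine volumes of water containing 0.011% Tween 20, sprayed to run-off on two-week-old Williams 82 soybean seedlings; inoculation 3 days before or 1 day after treatment. Plants held 24 h in dark dew room at 22° C, 100% RH, then at 23° C; disease severity scored on sprayed leaves.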

The subject of a further assay is Rhyncosporium secalis. The assay can be described thus: Barley scald (RHYNSE) disease control on barley seedlings. The conditions noted are these: 1DP test at 100 ppm. The protocol:
Technical grades of materials were dissolved in acetone, which were then mixed with nine volumes of water containing 110 ppm Triton X-100. The fungicide solutions were applied onto wheat seedlings using an automated booth sprayer to run-off. All sprayed plants were allowed to air dry prior to further handling. All fungicides were evaluated using the aforementioned method for their activity vs. all target diseases, unless stated otherwise. Wheat leaf blotch and brown rust activity were also evaluated using track spray applications, in which case the fungicides were formulated as EC formulations, containing 0.1% Trycol 5941 in the spray solutions. Example J: Evaluation of Fungicidal Activity: Barley Scald (Rhyncosporium secalis; Bayer Code […]) Barley seedlings (variety Harrington) were propagated in soil-less Metro mix, with each pot having 8 to 12 plants, and used in the test when first leaf was fully emerged. Test plants were inoculated by an aqueous spore suspension of Rhyncosporium secalis 24 hr after fungicide treatments. After inoculation the plants were kept in a dew room at 20° C. with 100% relative humidity for 48 hr. The plants were then transferred to a greenhouse set at 20° C. for disease to develop. Fungicide formulation, application and disease assessment on the sprayed leaves followed the procedures as described in the Example A.

Where [1] appears, read: 24 h, 1 Day Protectant, read-out: SEPTTR disease control rating, 1DP.
The mark [2] stands for this setting: 72 h, 3 Day Curative, read-out: SEPTTR disease control rating, 3DC.
The mark [3] stands for this setting: 24 h, 1 Day Protectant, read-out: PUCCRT disease control rating, 1DP.
Setting [4] is: 72 h, 3 Day Curative, read-out: PUCCRT disease control rating, 3DC.
Where [5] appears, read: 24 h, 1 day protectant, read-out: PHAKPA 1DP (1 Day Protectant) disease control.
Where [6] appears, read: 72 h, 3 day curative, read-out: PHAKPA 3DC (3 Day Curative) disease control.

Like-named read-outs stand apart in the source and are kept apart here. Bounds are passed on as bounds.

Turning to `COc1ccnc(C(=O)N[C@@H](C)C(=O)O[C@@H](C)[C@@H](C)c2ccccc2C)c1O` [Example 175], the pest or weed control at 100 ppm is less than 80% in the assay with Zymoseptoria tritici (setting [1]), less than 80% in the assay on Zymoseptoria tritici (setting [2]), more than 80% in the assay on Puccinia triticina (setting [3]) and more than 80% with Puccinia triticina (setting [4]). Also, the pest or weed control at 25 ppm in the assay with Phakopsora pachyrhizi (setting [5]) and in the assay on Phakopsora pachyrhizi (setting [6]) was more than 80% each time.

`COc1ccnc(C(=O)N[C@@H](C)C(=O)O[C@@H](C)[C@@H](C)c2ccccc2C(F)(F)F)c1OC(=O)C(C)C` [Example 234]: the pest or weed control at 121.5 g/ha in the assay with Zymoseptoria tritici (setting [1]), in the assay with Zymoseptoria tritici (setting [2]), in the assay with Puccinia triticina (setting [3]) and in the assay on Puccinia triticina (setting [4]) was less than 80% each time. In addition, the pest or weed control at 25 ppm in the assay with Phakopsora pachyrhizi (setting [5]) and in the assay with Phakopsora pachyrhizi (setting [6]) was more than 80% in each case.

In the case of `COc1ccnc(C(=O)N[C@@H](C)C(=O)O[C@H](C)[C@H](C)c2ccc(C)cc2C)c1OC(C)=O` [Example 178], the pest or weed control at 121.5 g/ha in the assay with Zymoseptoria tritici (setting [1]), in the assay with Zymoseptoria tritici (setting [2]), in the assay on Puccinia triticina (setting [3]) and in the assay with Puccinia triticina (setting [4]) was less than 80% throughout. Further, the pest or weed control at 25 ppm with Phakopsora pachyrhizi (setting [5]) was more than 80%; in the assay with Phakopsora pachyrhizi (setting [6]) it was less than 80%.

`COc1ccnc(C(=O)N[C@@H](C)C(=O)O[C@@H](C)[C@@H](C)c2ccc(C)s2)c1OC(C)=O` [Example 259]: the pest or weed control at 100 ppm is less than 80% with Zymoseptoria tritici (setting [1]), less than 0% in the assay with Zymoseptoria tritici (setting [2]), more than 80% in the assay with Puccinia triticina (setting [3]) and more than 80% in the assay on Puccinia triticina (setting [4]). Further, the pest or weed control at 121.5 g/ha in the assay with Zymoseptoria tritici (setting [1]) was less than 80%; in the assay on Zymoseptoria tritici (setting [2]) it was less than 0%; with Puccinia triticina (setting [3]), less than 80%; in the assay on Puccinia triticina (setting [4]), less than 0%. For the same compound, the pest or weed control at 25 ppm in the assay on Phakopsora pachyrhizi (setting [5]) and in the assay on Phakopsora pachyrhizi (setting [6]) was less than 80% in each case.

In the case of `COc1ccnc(C(=O)N[C@@H](C)C(=O)O[C@@H](C)[C@@H](C)c2ccccc2C(F)(F)F)c1O` [Example 158], the pest or weed control at 100 ppm in the assay on Zymoseptoria tritici (setting [1]) was more than 80%; in the assay on Zymoseptoria tritici (setting [2]) it was less than 80%; in the assay on Puccinia triticina (setting [3]), more than 80%; in the assay with Puccinia triticina (setting [4]), more than 80%. Moreover, the pest or weed control at 25 ppm with Phakopsora pachyrhizi (setting [6]) was less than 80%.

For the compound `COc1ccnc(C(=O)N[C@@H](C)C(=O)O[C@@H](C)[C@@H](C)c2c(C)cc(F)cc2C)c1OC(=O)C(C)C` [Example 238], the pest or weed control at 121.5 g/ha is more than 80% with Zymoseptoria tritici (setting [1]), more than 80% in the assay on Zymoseptoria tritici (setting [2]), more than 80% with Puccinia triticina (setting [3]) and less than 80% in the assay with Puccinia triticina (setting [4]). Also, the pest or weed control at 25 ppm in the assay on Phakopsora pachyrhizi (setting [5]) and in the assay on Phakopsora pachyrhizi (setting [6]) was more than 80% throughout.

Turning to `COc1ccnc(C(=O)N[C@@H](C)C(=O)OC(C)C(C)c2c(C)cc(F)cc2C)c1OC(=O)C(C)C` (some centres unmarked) [Example 244], the pest or weed control at 121.5 g/ha in the assay with Zymoseptoria tritici (setting [1]) is more than 80%; in the assay on Zymoseptoria tritici (setting [2]) it was more than 80%; with Puccinia triticina (setting [3]), more than 80%; in the assay on Puccinia triticina (setting [4]) it was less than 80%. Also, the pest or weed control at 25 ppm in the assay on Phakopsora pachyrhizi (setting [5]) and with Phakopsora pachyrhizi (setting [6]) was more than 80% each time.

As for `COc1cc[n+]([O-])c(C(=O)N[C@@H](C)C(=O)O[C@@H](C)[C@@H](C)C2CCCC2)c1O` [Example 275], the pest or weed control at 121.5 g/ha in the assay on Zymoseptoria tritici (setting [1]) is less than 0%; with Zymoseptoria tritici (setting [2]), less than 0%; in the assay with Puccinia triticina (setting [3]), less than 80%; in the assay on Puccinia triticina (setting [4]), less than 0%. In addition, the pest or weed control at 25 ppm with Phakopsora pachyrhizi (setting [5]) and in the assay with Phakopsora pachyrhizi (setting [6]) was less than 80% each time.

Regarding `COc1ccnc(C(=O)N[C@@H](C)C(=O)O[C@H](C)[C@H](C)c2ccccc2C(F)(F)F)c1OC(C)=O` [Example 250], the pest or weed control at 121.5 g/ha is less than 80% with Zymoseptoria tritici (setting [1]), less than 80% with Zymoseptoria tritici (setting [2]), less than 0% in the assay on Puccinia triticina (setting [3]) and less than 80% in the assay on Puccinia triticina (setting [4]). The pest or weed control at 25 ppm in the assay with Phakopsora pachyrhizi (setting [5]) and with Phakopsora pachyrhizi (setting [6]) was less than 80% each time.

Turning to `COc1ccnc(C(=O)N[C@@H](C)C(=O)O[C@@H](C)[C@@H](C)c2ccccc2)c1OC(C)=O` [Example 258], the pest or weed control at 100 ppm in the assay on Zymoseptoria tritici (setting [1]) was less than 80%; in the assay with Zymoseptoria tritici (setting [2]) it was less than 80%; in the assay with Puccinia triticina (setting [3]), more than 80%; in the assay with Puccinia triticina (setting [4]), more than 80%. The pest or weed control at 121.5 g/ha in the assay on Zymoseptoria tritici (setting [1]) was less than 80%; with Zymoseptoria tritici (setting [2]), more than 80%; in the assay with Puccinia triticina (setting [3]), less than 80%; in the assay with Puccinia triticina (setting [4]), more than 80%. Further, the pest or weed control at 25 ppm in the assay on Phakopsora pachyrhizi (setting [5]) and in the assay with Phakopsora pachyrhizi (setting [6]) was more than 80% throughout.

With `COc1ccnc(C(=O)N[C@@H](C)C(=O)OC(C)C(C)c2c(C)cccc2C)c1OC(=O)C(C)C` (some centres unmarked) [Example 243], the pest or weed control at 121.5 g/ha in the assay on Zymoseptoria tritici (setting [1]), in the assay with Zymoseptoria tritici (setting [2]), with Puccinia triticina (setting [3]) and with Puccinia triticina (setting [4]) was less than 80% each time. Also, the pest or weed control at 25 ppm in the assay with Phakopsora pachyrhizi (setting [5]) and with Phakopsora pachyrhizi (setting [6]) was more than 80% throughout.

On to `COc1ccnc(C(=O)N[C@@H](C)C(=O)OC(C)C(C)c2c(C)cc(F)cc2C)c1OC(C)=O` (some centres unmarked) [Example 256], for which the pest or weed control at 121.5 g/ha in the assay on Zymoseptoria tritici (setting [1]), in the assay with Zymoseptoria tritici (setting [2]), in the assay on Puccinia triticina (setting [3]) and in the assay on Puccinia triticina (setting [4]) was more than 80% throughout. The pest or weed control at 25 ppm in the assay on Phakopsora pachyrhizi (setting [5]) and in the assay with Phakopsora pachyrhizi (setting [6]) was more than 80% each time.

Turning to `COc1ccnc(C(=O)N[C@@H](C)C(=O)O[C@H](C)[C@H](C)c2ccccc2C(F)(F)F)c1OC(=O)C(C)C` [Example 239], the pest or weed control at 121.5 g/ha with Zymoseptoria tritici (setting [1]) is less than 80%; in the assay with Zymoseptoria tritici (setting [2]) it was less than 80%; with Puccinia triticina (setting [3]) it was less than 0%; with Puccinia triticina (setting [4]), less than 0%. Besides, the pest or weed control at 25 ppm with Phakopsora pachyrhizi (setting [5]) and in the assay with Phakopsora pachyrhizi (setting [6]) was less than 80% in each case.

Take `COc1ccnc(C(=O)N[C@@H](C)C(=O)O[C@H](C)[C@H](C)c2ccccc2C)c1OC(C)=O` [Example 263]: the pest or weed control at 121.5 g/ha in the assay with Zymoseptoria tritici (setting [1]), in the assay on Zymoseptoria tritici (setting [2]), with Puccinia triticina (setting [3]) and with Puccinia triticina (setting [4]) was less than 80% each time. In addition, the pest or weed control at 25 ppm was more than 80% in the assay with Phakopsora pachyrhizi (setting [5]) and less than 80% with Phakopsora pachyrhizi (setting [6]). Also, the “RHYNSE disease control rating” value in the assay with Rhyncosporium secalis is “B (≤80)”.
